{"source": "paper PMC4376002", "about": "(Frontiers in Bioengineering and Biotechnology, 2015)", "key": {"[1]": {"system": "Staphylococcus aureus", "assay_type": "cell-based"}, "[2]": {"system": "Escherichia coli K12", "assay_type": "cell-based"}, "[3]": {"system": "Klebsiella aerogenes", "assay_type": "cell-based"}, "[4]": {"system": "THP-1 cells"}, "[5]": {"system": "Salmonella enterica subsp. Enterica", "assay_type": "cell-based"}, "[6]": {"system": "Pseudomonas aeruginosa PA01", "assay_type": "cell-based"}, "[7]": {"system": "L. pneumophila Corby (WT)", "assay": "microbe, parasite or virus in culture", "assay_type": "cell-based, Legionella pneumophila", "details": "for MIC: Legionella pneumophila, 48 h, read-out: WT MIC, growth in YEB, 10 to 100 μM, 37°C, 2 days; for influence on the viability of wild type L. pneumophila: liquic culture"}, "[8]": {"molecular_target": "Mip of L. pneumophila (Legionella pneumophila subsp. pneumophila, UniProt Q5ZXE0)", "sequence (Q5ZXE0 21-233 limits assumed)": "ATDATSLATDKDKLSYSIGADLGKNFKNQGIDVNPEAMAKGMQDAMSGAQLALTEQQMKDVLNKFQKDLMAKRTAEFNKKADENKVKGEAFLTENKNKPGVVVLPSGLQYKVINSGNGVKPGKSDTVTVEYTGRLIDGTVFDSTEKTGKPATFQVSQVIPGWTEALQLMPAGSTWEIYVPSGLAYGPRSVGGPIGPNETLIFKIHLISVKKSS", "assay": "biochemical", "assay_type": "biochemical"}, "[9]": {"molecular_target": "human FKBP12 (Homo sapiens, UniProt P62942)", "sequence (P62942 whole entry)": "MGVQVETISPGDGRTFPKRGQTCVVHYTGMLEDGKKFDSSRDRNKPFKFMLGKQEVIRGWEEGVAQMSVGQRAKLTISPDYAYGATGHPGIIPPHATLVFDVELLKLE", "assay": "biochemical"}, "[10]": {"system": "Yersinia pseudotuberculosis", "assay_type": "cell-based", "details": "LB medium, data not shown"}, "[11]": {"system": "L. pneumophila Corby in differentiated THP-1 macrophages", "assay_type": "cell-based, Legionella pneumophila", "details": "compound added 2 h post infection, cfu/ml 24 h post infection; for concentration at which suppression of bacterial replication in THP-1 cells starts: 12.5 to 100 μM tested; for effect on bacterial replication in THP-1 cells: up to 100 μM"}, "[12]": {"system": "Mip-like protein of Burkholderia pseudomallei (BpML1)", "details": "ref Norville et al., 2011; read-out: IC50-value toward BpML1; cited from earlier work"}, "[13]": {"details": "growth in YEB, 10 to 100 μM, 37°C, 2 days"}}}
{"compound": "CC1CC(C)C(=O)C(C(O)CC2CC(=O)N(CC(=O)NC34CC5CC(C)(CC(C)(C5)C3)C4)C(=O)C2)C1", "note": "(centres unmarked) [MT_30.32]", "values": [{"measurement": "effect on growth of S. aureus", "setting": "[1]", "value": "none of the tested strains were affected in their growth"}, {"measurement": "effect on growth of E. coli K12", "setting": "[2]", "value": "none of the tested strains were affected in their growth"}, {"measurement": "effect on growth of K. aerogenes", "setting": "[3]", "value": "none of the tested strains were affected in their growth"}, {"measurement": "cytotoxicity to THP-1 cells", "setting": "[4]", "value": "without having cytotoxic side effects"}, {"measurement": "effect on growth of S. enterica subsp. enterica", "setting": "[5]", "value": "none of the tested strains were affected in their growth"}, {"measurement": "effect on growth of P. aeruginosa PA01", "setting": "[6]", "value": "none of the tested strains were affected in their growth"}, {"measurement": "MIC", "setting": "[7]", "value": "≥ 30", "unit": "µM"}, {"measurement": "IC50", "setting": "[8]", "value": "1.7 ± 0.2", "unit": "µM"}, {"measurement": "IC50-value for Mip relative to FKBP12 (fold higher; FKBP12 inhibited x-fold better)", "setting": "[8]", "value": 10, "unit": "fold"}, {"measurement": "IC50", "setting": "[9]", "value": "0.18 ± 0.05", "unit": "µM"}, {"measurement": "effect on growth of Y. pseudotuberculosis", "setting": "[10]", "value": "none of the tested strains were affected in their growth"}, {"measurement": "concentration at which suppression of bacterial replication in THP-1 cells starts", "setting": "[11]", "value": 50, "unit": "µM"}, {"measurement": "effect on bacterial replication in THP-1 cells", "setting": "[11]", "value": "effectively suppressed bacterial replication"}]}
{"compound": "C[C@@H]1CC([C@H](O)CC2CC(=O)N(CC(=O)NC34CC5CC(CC(C5)C3)C4)C(=O)C2)[C@@H](O)[C@@H](C)C1", "note": "(some centres unmarked) [MT_30.93]", "values": [{"measurement": "MIC", "setting": "[7]", "value": "≥ 30", "unit": "µM"}, {"measurement": "IC50", "setting": "[8]", "value": "16.3 ± 2.6", "unit": "µM"}, {"measurement": "IC50", "setting": "[9]", "value": "0.9 ± 0.05", "unit": "µM"}]}
{"compound": "C[C@@H]1CC([C@H](O)CC2CC(=O)N(CC(=O)NC(C)(C)C)C(=O)C2)C(=O)[C@@H](C)C1", "note": "(some centres unmarked) [MT_30.3]", "values": [{"measurement": "WT Inhibition", "setting": "[7]; [13]", "value": "- (no inhibition of growth at the highest tested concentration of 100 μM)"}, {"measurement": "influence on the viability of wild type L. pneumophila", "setting": "[7]; 10 to 100 μM", "value": "no influence"}, {"measurement": "IC50", "setting": "[8]", "value": "33.8 ± 8.6", "unit": "µM"}]}
{"compound": "CO[C@H]1C[C@@H]2CC[C@@H](C)[C@@](O)(O2)C(=O)C(=O)N2CCCC[C@H]2C(=O)O[C@H]([C@H](C)C[C@@H]2CC[C@@H](O)[C@H](OC)C2)CC(=O)[C@H](C)/C=C(\\C)[C@@H](O)[C@@H](OC)C(=O)[C@H](C)C[C@H](C)/C=C/C=C/C=C/1C", "note": "[Rapamycin, reference compound]", "values": [{"measurement": "MIC", "setting": "[7]", "value": "≥ 40", "unit": "µM"}, {"measurement": "WT MIC", "setting": "[7]; [13]", "value": 40, "unit": "µM"}]}
{"compound": "C[C@@H]1CC([C@H](O)CC2CC(=O)N(CC(=O)NC34CC5CC(CC(C5)C3)C4)C(=O)C2)[C@H](O)[C@@H](C)C1", "note": "(some centres unmarked) [MT_30.92]", "values": [{"measurement": "MIC", "setting": "[7]", "value": "≥ 30", "unit": "µM"}, {"measurement": "IC50", "setting": "[8]", "value": "12.6 ± 1.4", "unit": "µM"}, {"measurement": "IC50", "setting": "[9]", "value": "1 ± 0.1", "unit": "µM"}]}
{"compound": "CC1CC(C)C(=O)C(C(O)CC2CC(=O)N(CC(=O)NC34CC5(C)CC(C)(CC(O)(C5)C3)C4)C(=O)C2)C1", "note": "(centres unmarked) [MT_30.79]", "values": [{"measurement": "WT Inhibition", "setting": "[7]; [13]", "value": "- (no inhibition of growth at the highest tested concentration of 100 μM)"}, {"measurement": "influence on the viability of wild type L. pneumophila", "setting": "[7]; 10 to 100 μM", "value": "no influence"}, {"measurement": "IC50", "setting": "[8]", "value": "4.9 ± 0.9", "unit": "µM"}, {"measurement": "IC50-value for Mip relative to FKBP12 (fold higher; FKBP12 inhibited x-fold better)", "setting": "[8]", "value": "about 25 fold"}, {"measurement": "IC50", "setting": "[9]", "value": "0.22 ± 0.02", "unit": "µM"}]}
{"compound": "C[C@@H]1CC([C@H](O)CC2CC(=O)N(CC(=O)NC34CC5CC(CC(C5)C3)C4)C(=O)C2)C(=O)[C@@H](C)C1", "note": "(some centres unmarked) [MT_30.8]", "values": [{"measurement": "WT Inhibition", "setting": "[7]; [13]", "value": "- (no inhibition of growth at the highest tested concentration of 100 μM)"}, {"measurement": "influence on the viability of wild type L. pneumophila", "setting": "[7]; 10 to 100 μM", "value": "no influence"}, {"measurement": "IC50", "setting": "[8]", "value": "8.5 ± 2.1", "unit": "µM"}, {"measurement": "IC50", "setting": "[9]", "value": "0.4 ± 0.04", "unit": "µM"}]}
{"compound": "CCC12CC3CC(C1)CC(NC(=O)CN1C(=O)CC(C[C@@H](O)C4C[C@@H](C)C[C@H](C)C4=O)CC1=O)(C3)C2", "note": "(some centres unmarked) [MT_30.51]", "values": [{"measurement": "cytotoxicity to THP-1 cells", "setting": "[4]", "value": "without having cytotoxic side effects"}, {"measurement": "MIC", "setting": "[7]", "value": "≥ 30", "unit": "µM"}, {"measurement": "IC50", "setting": "[8]", "value": "5.6 ± 1.1", "unit": "µM"}, {"measurement": "IC50-value for Mip relative to FKBP12 (fold higher; FKBP12 inhibited x-fold better)", "setting": "[8]", "value": "about 25 fold"}, {"measurement": "IC50", "setting": "[9]", "value": "0.19 ± 0.06", "unit": "µM"}, {"measurement": "concentration at which suppression of bacterial replication in THP-1 cells starts", "setting": "[11]", "value": 50, "unit": "µM"}, {"measurement": "effect on bacterial replication in THP-1 cells", "setting": "[11]", "value": "effectively suppressed bacterial replication"}]}
{"compound": "CCOC(=O)CN1C(=O)CC(CC(O)C2CC(C)CC(C)C2=O)CC1=O", "note": "(centres unmarked) [Cycloheximide-N-ethylethanoate]", "values": [{"measurement": "IC50", "setting": "[12]", "value": "6.5 ± 1", "unit": "µM"}]}
{"compound": "C[C@@H]1CC([C@H](O)CC2CC(=O)N(CC(=O)N(C)C(C)(C)C)C(=O)C2)C(=O)[C@@H](C)C1", "note": "(some centres unmarked) [MT_30.9]", "values": [{"measurement": "MIC", "setting": "[7]", "value": 30, "unit": "µM"}, {"measurement": "IC50", "setting": "[8]", "value": "31.7 ± 7.4", "unit": "µM"}, {"measurement": "fold less effective than MT_30.32 in the protease coupled PPIase-assay", "setting": "[8]", "value": "about 18 fold"}, {"measurement": "IC50", "setting": "[9]", "value": "36.1 ± 4.1", "unit": "µM"}, {"measurement": "effect on bacterial replication in THP-1 cells", "setting": "[11]", "value": "no effect"}]}
{"compound": "C[C@@H]1CC([C@H](O)CC2CC(=O)N(CC(=O)NC34CC5CC(CC(O)(C5)C3)C4)C(=O)C2)C(=O)[C@@H](C)C1", "note": "(some centres unmarked) [MT_30.38]", "values": [{"measurement": "WT Inhibition", "setting": "[7]; [13]", "value": "- (no inhibition of growth at the highest tested concentration of 100 μM)"}, {"measurement": "influence on the viability of wild type L. pneumophila", "setting": "[7]; 10 to 100 μM", "value": "no influence"}, {"measurement": "IC50", "setting": "[8]", "value": "21.8 ± 3.3", "unit": "µM"}, {"measurement": "IC50", "setting": "[9]", "value": "1.2 ± 0.1", "unit": "µM"}]}
